Reference: patent US9140688B2, “Sperm staining and sorting methods” (INGURAN, LLC, priority 2011, dated 2015)
Read-outs that look alike come from different tables or passages of the source.

Experiments:
[1] = system: X- and Y-chromosome bearing bovine sperm stained with Hoechst 33342; assay: Split quality: height of peak divided by height of valley (PV), flow cytometry of stained bovine sperm; assay type: cell-based; conditions: for Height of Peak/Height of Valley: Ex 5; for Height of Peak Divided by Height of Valley: Ex 7, Phenol Red 620 μM with Yellow 6 62 μM
[2] = solvent water, cited from earlier work
[3] = system: membrane compromised bovine sperm stained with Hoechst 33342; assay: Dead quenching: dead gate intensity divided by live gate intensity, flow cytometry of stained bovine sperm; assay type: cell-based; conditions: for Dead Intensity (dead gate intensity divided by live gate intensity): Ex 5; for Intensity (dead gate): Hoechst 48 μM
Text: FIG. 4 illustrates an example bivariate plot and univariate histogram of the parameters measured during sex selection by a FACS on a flow cytometer. […] Without a dead quenching dye, both populations of sperm would overlap to a large extent, with unpredictable variations in the dead sperm.
The entire ejaculate of sperm was suspended in first staining buffer, specifically a 7.4 pH TALP described in TABLE 1, to a concentration of 160×10^6 sperm per mL (determined on nucleocounter) and divided into three aliquots of about 20 mL into 50 mL Falcon tubes and pre-warmed for 10 minutes at 34° C. The DNA selective fluorescent dye, Hoechst 33342, was added and samples were held at 34° C. for 60 minutes. 3 different Hoechst 33342 Stain Levels were used=12 μL, 14 μL and 16 μL per 2 mL (effective concentrations of 48 μM, 56 μM, 64 μM).
Preparation of the second buffer including the dead quenching dye—A 2 L bag of TALP, described in TABLE 1, was adjusted to pH 5.60 using HCl and then sterile filtered. […] For each of the four dyes tested (R40—red food dye No. 40, Y5—yellow food dye No. 5, Y6—yellow food dye No. 6 and PR—phenol red), an appropriate number of milligrams of each powder was placed in a Erlenmeyer Flask and then an exact amount of TALP pH 5.60 was added to create a […] concentration of the dye. The result was a working TALP stock for each dye with a 100% (125 μM) relative amount of dye 50% relative (62.5 μM) and 20% relative (25 μM) solutions were made by dilution of 100% by TALP pH 5.60.
After this “bulk” staining for 60 minutes, 1 mL aliquots of stained sperm were combined with 1 mL aliquots of the second buffer including the dead quenching dyes. Samples sat for approximately 30 minutes at room temperature before being analyzed on a MoFlo SX (Beckman Coulter, USA) sperm sorting flow cytometer. Event rates were held as close to 13,000 as possible at the point of data acquisition.
The total number of individual treatments was 42 tubes, each containing 2 mL of stained sample. The alignment of the sorter was established using nuclei and confirmed with live sample from the 50% Red 40 series. Once good alignment was established, each tube was placed on the sorter long enough to establish a stabile dead gate population (about 30 seconds) and then a screenshot was taken and saved as a .jpeg image. This approach of rapidly documenting each sample is used to assure the most consistent alignment between all samples. Realignment of sorter will not cause differences in the intensities of live and dead gate populations but will cause differences in split quality.
FIG. 4 illustrates an example histogram. The ratio of dead gate intensity divided by live gate intensity is created by dividing the distance “A” by the distance “B” shown as a percentage. Lower values mean higher levels of quenching. The ratio of peak height divided by valley height is created by dividing the distance “C” by the distance “D”. A value of 1.00 means “no split” while higher values mean “better splits”. […]

[4] = dye 62.5 μM, Hoechst 12 μL/2 mL
[5] = dye 62.5 μM, Hoechst 14 μL/2 mL
[6] = dye 62.5 μM, Hoechst 16 μL/2 mL

Q: Which “Height of Peak/Height of Valley” value ([1]; dye 25 μM, Average of 12 and 14 μL series) does the source give for `O=S1(=O)OC(c2ccc(O)cc2)(c2ccc(O)cc2)c2ccccc21` [Phenol Red, phenolsulfonphthalein] here?
A: Its value is 1.74.

Q: What about the “Height of Peak/Height of Valley” value ([1]; dye 25 μM, Hoechst 12 μL/2 mL) of the same molecule?
A: The value was 1.82.

Q: And the “Height of Peak/Height of Valley” value ([1]; dye 25 μM, Hoechst 14 μL/2 mL)?
A: The value was 1.65.

Q: And the “Height of Peak/Height of Valley” value ([1]; dye 25 μM, Hoechst 16 μL/2 mL)?
A: Its value is 1.00.

Q: And the “Height of Peak/Height of Valley” value ([1]; dye 62.5 μM, Average of 12 and 14 μL series)?
A: The value was 1.75.

Q: What about the “Height of Peak/Height of Valley” value [1, 4] of the same molecule?
A: Its value is 1.62.

Q: What about the “Height of Peak/Height of Valley” value [1, 5] of the same molecule?
A: Its value is 1.87.

Q: What about the “Height of Peak/Height of Valley” value [1, 6] of the same molecule?
A: Its value is 1.00.

Q: What about the “Height of Peak/Height of Valley” value ([1]; dye 125 μM, Average of 12 and 14 μL series) of the same molecule?
A: Its value is 1.62.

Q: And the “Height of Peak/Height of Valley” value ([1]; dye 125 μM, Hoechst 12 μL/2 mL)?
A: Its value is 1.49.

Q: And the “Height of Peak/Height of Valley” value ([1]; dye 125 μM, Hoechst 14 μL/2 mL)?
A: The value was 1.75.

Q: What about the “Height of Peak/Height of Valley” value ([1]; dye 125 μM, Hoechst 16 μL/2 mL) of the same molecule?
A: The value was 1.00.

Q: What about the PV ([1]; Ex 6, dye 125 μM, pH 7.40, Hoechst 48 μM) of the same molecule?
A: The PV was 1.27.

Q: And the PV ([1]; Ex 6, dye 125 μM, resulting pH 6.70, Hoechst 48 μM)?
A: Its PV is 1.00.

Q: And the PV ([1]; Ex 6, dye 250 μM, pH 7.40, Hoechst 48 μM)?
A: The PV was 1.22.

Q: What about the PV ([1]; Ex 6, dye 250 μM, resulting pH 6.70, Hoechst 48 μM) of the same molecule?
A: The PV was 1.17.

Q: What about the PV ([1]; Ex 6, dye 500 μM, pH 7.40, Hoechst 48 μM) of the same molecule?
A: Its PV is 1.51.

Q: What about the PV ([1]; Ex 6, dye 500 μM, resulting pH 6.70, Hoechst 48 μM) of the same molecule?
A: Its PV is 1.25.

Q: What about the PV ([1]; Ex 6, dye 750 μM, pH 7.40, Hoechst 48 μM) of the same molecule?
A: Its PV is 1.46.

Q: And the PV ([1]; Ex 6, dye 750 μM, resulting pH 6.70, Hoechst 48 μM)?
A: Its PV is 1.25.

Q: What about the PV ([1]; Ex 6, dye 875 μM, pH 7.40, Hoechst 48 μM) of the same molecule?
A: Its PV is 1.44.

Q: What about the PV ([1]; Ex 6, dye 875 μM, resulting pH 6.70, Hoechst 48 μM) of the same molecule?
A: The PV was 1.20.

Q: And the PV ([1]; Ex 6, dye 1250 μM, pH 7.40, Hoechst 48 μM)?
A: The PV was 1.30.

Q: What about the PV ([1]; Ex 6, dye 1250 μM, resulting pH 6.70, Hoechst 48 μM (understained)) of the same molecule?
A: Its PV is 1.29.

Q: And the “Height of Peak Divided by Height of Valley” value (from here on “Height of Peak Divided”) ([1]; cells 100 million per mL)?
A: Its value is 1.49.

Q: What about the “Height of Peak Divided” value ([1]; cells 150 million per mL) of the same molecule?
A: Its value is 1.34.

Q: And the “Height of Peak Divided” value ([1]; cells 250 million per mL)?
A: The value was 1.43.

Q: And the “Height of Peak Divided” value ([1]; cells 300 million per mL)?
A: Its value is 1.36.

Q: And the PV ([1]; Ex 8, Bull 1, Hoechst 44 μM, PR 250 μM with Y6 50 μM)?
A: The PV was 1.52.

Q: What about the PV ([1]; Ex 8, Bull 1, Hoechst 44 μM, PR 500 μM alone) of the same molecule?
A: The PV was 1.97.

Q: And the PV ([1]; Ex 8, Bull 1, Hoechst 60 μM, PR 375 μM alone)?
A: The PV was 2.38.

Q: What about the PV ([1]; Ex 8, Bull 1, Hoechst 60 μM, PR 375 μM with Y6 50 μM) of the same molecule?
A: Its PV is 2.38.

Q: And the PV ([1]; Ex 8, Bull 1, Hoechst 60 μM, PR 1200 μM with R40 20 μM)?
A: Its PV is 2.12.

Q: What about the PV ([1]; Ex 8, Bull 2, Hoechst 28 μM, PR 375 μM alone) of the same molecule?
A: The PV was 1.96.

Q: And the PV ([1]; Ex 8, Bull 2, Hoechst 28 μM, PR 375 μM with Y6 50 μM)?
A: Its PV is 2.05.

Q: And the PV ([1]; Ex 8, Bull 2, Hoechst 44 μM, PR 225 μM with Y6 50 μM)?
A: The PV was 1.56.

Q: What about the PV ([1]; Ex 8, Bull 2, Hoechst 44 μM, PR 375 μM with R40 20 μM) of the same molecule?
A: The PV was 1.64.

Q: And the PV ([1]; Ex 8, Bull 2, Hoechst 44 μM, PR 375 μM with Y6 50 μM)?
A: Its PV is 1.75.

Q: What about the PV ([1]; Ex 8, Bull 2, Hoechst 60 μM, PR 375 μM with Y6 50 μM) of the same molecule?
A: The PV was 1.69.

Q: And the PV ([1]; Ex 8, Bull 2, Hoechst 60 μM, PR 375 μM with Y6 375 μM)?
A: The PV was 2.31.

Q: What about the “effect of addition on split quality, in words” value ([1]; Ex 8, each Hoechst level, with Red 40 or Yellow 6) of the same molecule?
A: Its value is “always improved split quality”.

Q: What about the “split enhancing effect compared to control, in words” value ([1]; Ex 10, 15, 45, 125 μM, averaged over 8 bulls) of the same molecule?
A: The value was “consistent split improvements at all concentrations after 30 minutes”.

Q: What about the “Expected Absorption Maxima” value ([2]; longer-wavelength local maximum) of the same molecule?
A: The value was 560 nm.

Q: And the “Expected Absorption Maxima” value ([2]; shorter-wavelength local maximum)?
A: Its value is 440 nm.

Q: What about the “Dead Intensity (dead gate intensity divided by live gate intensity)” value ([3]; dye 25 μM, Average of Hoechst levels) of the same molecule?
A: The value was 94%.

Q: What about the “Dead Intensity (dead gate intensity divided by live gate intensity)” value ([3]; dye 25 μM, Hoechst 12 μL/2 mL) of the same molecule?
A: Its value is 94%.

Q: And the “Dead Intensity (dead gate intensity divided by live gate intensity)” value ([3]; dye 25 μM, Hoechst 14 μL/2 mL)?
A: The value was 97%.

Q: What about the “Dead Intensity (dead gate intensity divided by live gate intensity)” value ([3]; dye 25 μM, Hoechst 16 μL/2 mL) of the same molecule?
A: The value was 90%.

Q: What about the “Dead Intensity (dead gate intensity divided by live gate intensity)” value ([3]; dye 62.5 μM, Average of Hoechst levels) of the same molecule?
A: Its value is 87%.

Q: What about the “Dead Intensity (dead gate intensity divided by live gate intensity)” value [3, 4] of the same molecule?
A: Its value is 90%.

Q: What about the “Dead Intensity (dead gate intensity divided by live gate intensity)” value [3, 5] of the same molecule?
A: Its value is 90%.

Q: And the “Dead Intensity (dead gate intensity divided by live gate intensity)” value [3, 6]?
A: Its value is 80%.

Q: And the “Dead Intensity (dead gate intensity divided by live gate intensity)” value ([3]; dye 125 μM, Average of Hoechst levels)?
A: The value was 79%.

Q: And the “Dead Intensity (dead gate intensity divided by live gate intensity)” value ([3]; dye 125 μM, Hoechst 12 μL/2 mL)?
A: Its value is 80%.

Q: And the “Dead Intensity (dead gate intensity divided by live gate intensity)” value ([3]; dye 125 μM, Hoechst 14 μL/2 mL)?
A: The value was 80%.

Q: And the “Dead Intensity (dead gate intensity divided by live gate intensity)” value ([3]; dye 125 μM, Hoechst 16 μL/2 mL)?
A: The value was 78%.

Q: And the “amount of dye needed for a similar dead gate intensity ratio as red food dye No. 40 and yellow food dye No. 6” value ([3]; Ex 6)?
A: The value was “twelve times more”.

Q: What about the “Intensity (dead gate)” value ([3]; Ex 6, dye 125 μM, pH 7.40) of the same molecule?
A: The value was 85%.

Q: What about the “Intensity (dead gate)” value ([3]; Ex 6, dye 125 μM, resulting pH 6.70) of the same molecule?
A: Its value is 79%.

Q: What about the “Intensity (dead gate)” value ([3]; Ex 6, dye 250 μM, pH 7.40) of the same molecule?
A: Its value is 76%.

Q: And the “Intensity (dead gate)” value ([3]; Ex 6, dye 250 μM, resulting pH 6.70)?
A: The value was 70%.

Q: And the “Intensity (dead gate)” value ([3]; Ex 6, dye 500 μM, pH 7.40)?
A: Its value is 66%.

Q: What about the “Intensity (dead gate)” value ([3]; Ex 6, dye 500 μM, resulting pH 6.70) of the same molecule?
A: The value was 67%.

Q: What about the “Intensity (dead gate)” value ([3]; Ex 6, dye 750 μM, pH 7.40) of the same molecule?
A: The value was 56%.

Q: What about the “Intensity (dead gate)” value ([3]; Ex 6, dye 750 μM, resulting pH 6.70) of the same molecule?
A: Its value is 55%.

Q: What about the “Intensity (dead gate)” value ([3]; Ex 6, dye 875 μM, pH 7.40) of the same molecule?
A: Its value is 47%.

Q: What about the “Intensity (dead gate)” value ([3]; Ex 6, dye 875 μM, resulting pH 6.70) of the same molecule?
A: Its value is 45%.

Q: And the “Intensity (dead gate)” value ([3]; Ex 6, dye 1250 μM, pH 7.40)?
A: Its value is 43%.

Q: And the “Intensity (dead gate)” value ([3]; Ex 6, dye 1250 μM, second buffer pH 5.60 (resulting pH 6.70))?
A: Its value is 41%.
